The values that follow come from US10215746B2, “Methods for diagnosis and intervention of hepatic disorders” (The Regents of the University of Colorado, priority 2005, dated 2019).

The conditions of series [1]: cited from earlier work.
The conditions of series [2]: in vivo; cited from earlier work.
Series [3] can be described thus: Dissolution of cholate for oral solution. It is filed as physicochemical. Particulars: aqueous sodium bicarbonate.
The test system of another series is chronic hepatitis C. Particulars: 90 μg/week vs no treatment; cited from earlier work.
The conditions of series [4]: cited from earlier work. This is another data set of the same source.
For series [5] the following is noted: single intravenous injection; cited from earlier work.

Where two headings read alike, the source gives them in different places.

For `CC1(C)C(/C=C/C=C/C=C/C=C2\N(CCCCS(=O)(=O)O)c3ccc4ccccc4c3C2(C)C)=[N+](CCCCS(=O)(=O)[O-])c2ccc3ccccc3c21` [Indocyanine green], the first-pass hepatic extraction entry in series [1] (administered intravenously) is reported as “up to 80%”.
With `Cc1cc(=O)n(-c2ccccc2)n1C` [antipyrine], in series [2], the “drug appearing unchanged in the urine” value is 5%.
Take `C[C@H](CCC(=O)O)[C@H]1CC[C@H]2[C@@H]3[C@H](O)C[C@@H]4C[C@H](O)CC[C@]4(C)[C@H]3C[C@H](O)[C@]12C` [Cholate, cholic acid]: the dissolution entry in series [3] is given as “easily dissolved”.
Consider peginterferon alfa-2a [PegIFN], for which the “effect on clinical or histological outcomes” value in the series with chronic hepatitis C is “did not affect clinical or histological outcomes”.
Consider `CCN(CC)CC(=O)Nc1c(C)cccc1C` [Lidocaine], for which the “side effects (sensory symptoms)” value in series [4] (lower dose (less than 1 mg/kg such as 0.5 mg/kg) iv) is on record as 30%; in series [4] (standard dose 1 mg/kg iv over 2 minutes) it was 53%. The first pass elimination result in series [1] (in vivo) was “up to 81%”.
Regarding `O=C[C@H](O)[C@@H](O)[C@@H](O)[C@H](O)CO` [galactose], in series [5], the “share of total plasma elimination due to distribution and metabolism outside the liver” value is 40%; the “share of total plasma elimination due to hepatic clearance” value is on record as “Approximately 60%”.
